{"source": "ChEMBL document CHEMBL1240317", "about": "“Probing cell-division phenotype space and Polo-like kinase function using small molecules” (Nat Chem Biol, 2006)", "key": {"PtK2 [1]": {"system": "PtK2", "experiment": "Inhibition of polo-like kinase 1 activity in rat kangaroo PtK2 cells expressing GFP-labeled alpha-tubulin assessed as interkinetochore distance at 33 uM after 45 mins", "format": "cell-based", "conditions": "Potorous tridactylus"}, "PtK2 [2]": {"system": "PtK2", "experiment": "Inhibition of polo-like kinase 1 activity in rat kangaroo PtK2 cells expressing GFP-labeled alpha-tubulin assessed as phosphorylation of Cdc25c at 6.3 uM after 1 hr by quantitative immunofluorescence", "format": "cell-based", "conditions": "Potorous tridactylus"}, "U2OS [3]": {"system": "U2OS", "experiment": "Induction of monopolar spindles and reduction in gamma-tubulin at the centrosomes in human U2OS cells at 25 uM after 4 hrs by immunofluorescence", "format": "functional, cell-based"}, "PtK2 [4]": {"system": "PtK2", "experiment": "Antimitotic activity in rat kangaroo PtK2 cells expressing GFP-labeled alpha-tubulin in presence of monastrol assessed as cells remained in mitosis at 6 uM after 90 mins by phase-contrast microscopy", "format": "functional, cell-based", "conditions": "Potorous tridactylus"}, "PtK2 [5]": {"system": "PtK2", "experiment": "Inhibition of polo-like kinase 1 activity in rat kangaroo PtK2 cells expressing GFP-labeled alpha-tubulin assessed as phosphorylation of Cdc25c at centrosomes after 1 hr by quantitative immunofluorescence", "format": "cell-based", "conditions": "Potorous tridactylus"}, "PtK2 [6]": {"system": "PtK2", "experiment": "Induction of mitotic index in rat kangaroo PtK2 cells expressing GFP-labeled alpha-tubulin after 4 hrs", "format": "functional, cell-based", "conditions": "Potorous tridactylus"}, "PtK2 [7]": {"system": "PtK2", "experiment": "Inhibition of polo-like kinase 1 activity in rat kangaroo PtK2 cells expressing GFP-labeled alpha-tubulin assessed as shortening of chromosome associated microtubule fibres at 20 uM by spinning disk confocal microscopy in presence of 20 uM MG132", "format": "cell-based", "conditions": "Potorous tridactylus"}, "BSC-1 [8]": {"system": "BSC-1", "experiment": "Antimitotic activity against african green monkey BSC1 cells assessed as induction of monopolar spindles by immunofluorescence microscopy", "format": "functional, cell-based", "conditions": "Chlorocebus aethiops"}, "PtK2 [9]": {"system": "PtK2", "experiment": "Inhibition of polo-like kinase 1 activity in rat kangaroo PtK2 cells expressing GFP-labeled alpha-tubulin assessed as interkinetochore distance at 6 uM after 45 mins", "format": "cell-based", "conditions": "Potorous tridactylus"}, "BSC-1 [10]": {"system": "BSC-1", "experiment": "Antimitotic activity against african green monkey BSC1 cells assessed as induction of monopolar spindles at 20 uM by immunofluorescence microscopy", "format": "functional, cell-based", "conditions": "Chlorocebus aethiops"}, "PtK2 [11]": {"system": "PtK2", "experiment": "Inhibition of polo-like kinase 1 activity in rat kangaroo PtK2 cells expressing GFP-labeled alpha-tubulin assessed as stable microtubule bundles at 6.3 uM at 20 sec time interval for 5 min by spinning disk confocal microscopy", "format": "cell-based", "conditions": "Potorous tridactylus"}, "PtK2 [12]": {"system": "PtK2", "experiment": "Inhibition of polo-like kinase 1 activity in rat kangaroo PtK2 cells expressing GFP-labeled alpha-tubulin assessed as V-shaped chromosome at 6.3 uM by spinning disk confocal microscopy in presence of 20 uM MG132", "format": "cell-based", "conditions": "Potorous tridactylus"}, "PtK2 [13]": {"system": "PtK2", "experiment": "Change in microtubule dynamics in rat kangaroo PtK2 cells expressing GFP-labeled alpha-tubulin by replacing with PLK inhibitor- free medium", "format": "functional, cell-based", "conditions": "Potorous tridactylus"}, "[14]": {"target": "T1, Serine/threonine-protein kinase PLK1 (Homo sapiens, UniProt P53350)", "T1 sequence (P53350 whole entry)": "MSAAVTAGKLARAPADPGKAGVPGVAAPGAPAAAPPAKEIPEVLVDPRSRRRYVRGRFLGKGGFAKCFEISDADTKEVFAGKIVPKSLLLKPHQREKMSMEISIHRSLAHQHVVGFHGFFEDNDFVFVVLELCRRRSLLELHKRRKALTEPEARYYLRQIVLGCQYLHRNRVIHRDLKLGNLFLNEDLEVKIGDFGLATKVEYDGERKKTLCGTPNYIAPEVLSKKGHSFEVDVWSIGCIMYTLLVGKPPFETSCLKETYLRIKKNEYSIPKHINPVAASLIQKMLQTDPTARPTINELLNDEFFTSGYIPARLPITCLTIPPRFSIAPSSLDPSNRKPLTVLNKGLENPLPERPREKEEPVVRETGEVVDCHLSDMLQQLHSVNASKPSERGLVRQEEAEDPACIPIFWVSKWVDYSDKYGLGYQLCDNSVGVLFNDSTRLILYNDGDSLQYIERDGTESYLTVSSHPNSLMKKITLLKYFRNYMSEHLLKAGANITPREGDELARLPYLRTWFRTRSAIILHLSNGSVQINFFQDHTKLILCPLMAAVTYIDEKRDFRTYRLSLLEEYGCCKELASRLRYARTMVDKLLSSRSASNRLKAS", "experiment": "Inhibition of recombinant polo-like kinase 1 activity by SDS-PAGE"}, "BSC-1 [15]": {"system": "BSC-1", "experiment": "Induction of monopolar mitotic spindles in african green monkey BSC1 cells assessed as percentage of monopolar cells with two centrosomes at 5 uM after 4 hrs", "format": "functional, cell-based", "conditions": "Chlorocebus aethiops"}, "PtK2 [16]": {"system": "PtK2", "experiment": "Inhibition of Aurora kinase activity in rat kangaroo PtK2 cells assessed as histone H3 phosphorylation at 6.3 uM after 1 hr by quantitative fluorescence", "format": "cell-based", "conditions": "Potorous tridactylus"}, "U2OS [17]": {"system": "U2OS", "experiment": "Induction of monopolar spindles and reduction in gamma-tubulin at the centrosomes in human U2OS cells at 50 uM after 4 hrs by immunofluorescence", "format": "functional, cell-based"}, "BSC-1 [18]": {"system": "BSC-1", "experiment": "Induction of monopolar mitotic spindles in african green monkey BSC1 cells assessed as kinesin-5 (Eg5) inhibition at 100 uM after 4 hrs", "format": "functional, cell-based", "conditions": "Chlorocebus aethiops"}, "BSC-1 [19]": {"system": "BSC-1", "experiment": "Induction of reduced mitotic index in african green monkey BSC1 cells at 20 uM after 4 hrs by immunocytochemistry", "format": "functional, cell-based", "conditions": "Chlorocebus aethiops"}, "PtK2 [20]": {"system": "PtK2", "experiment": "Induction of monopolar mitotic spindles in rat kangaroo PtK2 cells expressing GFP-labeled alpha-tubulin after 4 hrs", "format": "functional, cell-based", "conditions": "Potorous tridactylus"}, "PtK2 [21]": {"system": "PtK2", "experiment": "Induction of monopolar mitotic spindles in rat kangaroo PtK2 cells expressing GFP-labeled alpha-tubulin at 6.3 uM after 4 hrs", "format": "functional, cell-based", "conditions": "Potorous tridactylus"}, "PtK2 [22]": {"system": "PtK2", "experiment": "Inhibition of polo-like kinase 1 activity in rat kangaroo PtK2 cells expressing GFP-labeled alpha-tubulin assessed as V-shaped chromosome at 20 uM by spinning disk confocal microscopy in presence of 20 uM MG132", "format": "cell-based", "conditions": "Potorous tridactylus"}, "BSC-1 [23]": {"system": "BSC-1", "experiment": "Antimitotic activity against african green monkey BSC1 cells assessed as induction of sphere like organization at 2.5 uM by immunofluorescence microscopy", "format": "functional, cell-based", "conditions": "Chlorocebus aethiops"}, "PtK2 [24]": {"system": "PtK2", "experiment": "Inhibition of polo-like kinase 1 activity in rat kangaroo PtK2 cells expressing GFP-labeled alpha-tubulin assessed as shortening of chromosome associated microtubule fibres at 6.3 uM by spinning disk confocal microscopy in presence of 20 uM MG132", "format": "cell-based", "conditions": "Potorous tridactylus"}, "[25]": {"target": "T1, Serine/threonine-protein kinase PLK1", "experiment": "Inhibition of recombinant polo-like kinase 1 activity at 100 nM by SDS-PAGE"}, "PtK2 [26]": {"system": "PtK2", "experiment": "Inhibition of polo-like kinase 1 activity in rat kangaroo PtK2 cells expressing GFP-labeled alpha-tubulin assessed as interkinetochore distance at 20 uM after 45 mins", "format": "cell-based", "conditions": "Potorous tridactylus"}, "PtK2 [27]": {"system": "PtK2", "experiment": "Inhibition of polo-like kinase 1 activity in rat kangaroo PtK2 cells expressing GFP-labeled alpha-tubulin assessed as phosphorylation of Cdc25c at 20 uM after 1 hr by quantitative immunofluorescence", "format": "cell-based", "conditions": "Potorous tridactylus"}, "PtK2 [28]": {"system": "PtK2", "experiment": "Inhibition of Aurora kinase activity in rat kangaroo PtK2 cells assessed as histone H3 phosphorylation at 25 uM after 1 hr by quantitative fluorescence", "format": "cell-based", "conditions": "Potorous tridactylus"}, "PtK2 [29]": {"system": "PtK2", "experiment": "Antimitotic activity in rat kangaroo PtK2 cells expressing GFP-labeled alpha-tubulin in presence of monastrol assessed as cells remained in mitosis at 20 uM after 90 mins by phase-contrast microscopy", "format": "functional, cell-based", "conditions": "Potorous tridactylus"}, "PtK2 [30]": {"system": "PtK2", "experiment": "Induction of monopolar mitotic spindles in rat kangaroo PtK2 cells expressing GFP-labeled alpha-tubulin at 20 uM after 4 hrs", "format": "functional, cell-based", "conditions": "Potorous tridactylus"}}, "note": "Active and inactive are the calls of the source. Unless noted, the calls are words filed in the database; no cut-off is given here."}
{"molecule": "COC(=O)Nc1nc2cc(C(=O)c3cccs3)ccc2[nH]1", "values": [{"measurement": "interkinetochore distance", "setting": "PtK2 [1]", "result": 1.4, "unit": "µm"}]}
{"molecule": "CC(=O)Nc1ccc(Nc2ncc([N+](=O)[O-])c(Nc3ccccc3C(=O)c3ccccc3)n2)cc1", "values": [{"measurement": "inhibition", "setting": "PtK2 [2]", "result": "Active"}, {"measurement": "Activity", "setting": "U2OS [3]", "result": "Active"}, {"measurement": "Activity", "setting": "PtK2 [4]", "result": "Active"}, {"measurement": "Activity", "setting": "PtK2 [5]", "result": "Dose-dependent effect"}, {"measurement": "Activity", "setting": "PtK2 [6]", "result": "Dose-dependent effect"}, {"measurement": "inhibition", "setting": "PtK2 [7]", "result": "Active"}, {"measurement": "EC50", "setting": "BSC-1 [8]", "result": 5, "unit": "µM"}, {"measurement": "interkinetochore distance", "setting": "PtK2 [9]", "result": 1.9, "unit": "µm"}, {"measurement": "Activity", "setting": "BSC-1 [10]", "result": "Active"}, {"measurement": "inhibition", "setting": "PtK2 [11]", "result": "Active"}, {"measurement": "inhibition", "setting": "PtK2 [12]", "result": "Active"}, {"measurement": "Activity", "setting": "PtK2 [13]", "result": "Active"}, {"measurement": "IC50", "setting": "[14]", "result": 0.9, "unit": "µM"}, {"measurement": "Activity", "setting": "BSC-1 [15]", "result": "Active"}, {"measurement": "inhibition", "setting": "PtK2 [16]", "result": 20, "unit": "%"}, {"measurement": "Activity", "setting": "U2OS [17]", "result": "Active"}, {"measurement": "Activity", "setting": "BSC-1 [18]", "result": "Active"}, {"measurement": "Activity", "setting": "BSC-1 [19]", "result": "Active"}, {"measurement": "Activity", "setting": "PtK2 [20]", "result": "Dose-dependent effect"}, {"measurement": "Activity", "setting": "PtK2 [21]", "result": "Active"}, {"measurement": "inhibition", "setting": "PtK2 [22]", "result": "Active"}, {"measurement": "Activity", "setting": "BSC-1 [23]", "result": "Active"}, {"measurement": "inhibition", "setting": "PtK2 [24]", "result": "Active"}, {"measurement": "inhibition", "setting": "[25]", "result": "inactive"}]}
{"molecule": "N#Cc1cc([N+](=O)[O-])c2sc(C(N)=O)[n+]([O-])c2c1", "values": [{"measurement": "Activity", "setting": "U2OS [3]", "result": "Active"}, {"measurement": "interkinetochore distance", "setting": "PtK2 [26]", "result": 2.3, "unit": "µm"}, {"measurement": "Activity", "setting": "PtK2 [5]", "result": "Dose-dependent effect"}, {"measurement": "Activity", "setting": "PtK2 [6]", "result": "Dose-dependent effect"}, {"measurement": "inhibition", "setting": "PtK2 [27]", "result": "Active"}, {"measurement": "inhibition", "setting": "PtK2 [28]", "result": 20, "unit": "%"}, {"measurement": "Activity", "setting": "PtK2 [29]", "result": "Active"}, {"measurement": "IC50", "setting": "[14]", "result": 8, "unit": "µM"}, {"measurement": "Activity", "setting": "U2OS [17]", "result": "Active"}, {"measurement": "Activity", "setting": "PtK2 [20]", "result": "Dose-dependent effect"}, {"measurement": "Activity", "setting": "PtK2 [30]", "result": "Active"}]}
